What is called EC50 is the midpoint of the concentration-response curve. Read a low EC50 as an effect from little substance.

The target in test [1] is T1, FBXO22 (Homo sapiens, UniProt Q8NEZ5).
T1 sequence (Q8NEZ5 1-403): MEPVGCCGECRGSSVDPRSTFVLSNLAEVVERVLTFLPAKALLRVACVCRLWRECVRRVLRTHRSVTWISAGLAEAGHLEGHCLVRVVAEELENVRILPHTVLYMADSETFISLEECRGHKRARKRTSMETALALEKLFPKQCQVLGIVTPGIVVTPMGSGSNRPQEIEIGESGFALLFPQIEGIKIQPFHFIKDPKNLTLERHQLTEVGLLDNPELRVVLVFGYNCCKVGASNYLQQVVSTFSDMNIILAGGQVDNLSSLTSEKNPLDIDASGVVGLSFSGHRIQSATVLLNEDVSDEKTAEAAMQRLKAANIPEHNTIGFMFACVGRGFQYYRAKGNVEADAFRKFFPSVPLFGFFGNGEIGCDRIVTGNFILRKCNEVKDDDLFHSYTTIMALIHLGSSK
Put plainly: cysteine-directed ABPP in cells. Type of test: cell-based.

Test [2] has as its target FKBP12 (Homo sapiens, UniProt P62942). Type of test: cell-based.

FKBP12, sequence (P62942 2-108): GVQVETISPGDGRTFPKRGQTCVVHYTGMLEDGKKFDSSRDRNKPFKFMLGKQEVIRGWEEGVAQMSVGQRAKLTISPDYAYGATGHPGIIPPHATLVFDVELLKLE

Consider `CCC(C)(C)C(=O)C(=O)N1CCCC[C@H]1C(=O)O[C@H](CCc1ccc(OC)c(OC)c1)c1cccc(OCC(=O)NCCCOCCOCCOCCCN(C(=O)CCl)C(C(=O)NCc2ccccc2)c2nc3ccccc3s2)c1` (some centres unmarked) [compound 1, 22-SLF], for which the “% of C228 blocked at 2 μM” value in test [1] was ~ 20 % of C228 blocked at 2 μM. This molecule also registered an EC50 in test [2] of 1960 nM.

These data come from PMC11581908 (Nature chemical biology, 2024).
